According to US20110105544A1, “CARBOXYLIC DERIVATIVES FOR USE IN THE TREATMENT OF CANCER” (priority 2007, published 2011):
Counter-ions that a name gives are not always drawn.

Columns and labels:
[1] = molecular target: T1, human recombinant HDAC 2 (Homo sapiens, UniProt Q92769); experiment: HDAC inhibition assay (Fluor de Lys), HDAC2; type: biochemical; settings: inhibitor-protein incubation 2 hours, reaction 1 h 30 min, 37° C.
T1 construct: purchased BPS Bioscience 50002
Protocol: All assays were carried out in the assay buffer: 50 mM Tris/Cl, pH 8.0, 137 mM NaCl, 2.7 mM KCl, 1 mM MgCl2).
Reactions were carried out in a 96-wells microplate (Corning 96 well Flat Bottom Non-binding surface (black) ref. 3651).
Potential inhibitors were added after five fold serial dilutions in DMSO. Final DMSO concentration in the assay microplate was kept at 2%.
Afterwards, human recombinant HDAC1, HDAC 2 or HDAC 8 were added up to […] respectively in assay buffer. When necessary, the mixture was incubated at room temperature prior the addition of substrate.
Total reaction volume of 50 μl. Human recombinant HDACs could be acquired from commercial sources (HDAC1: ref. #50001, BPS Bioscience™; HDAC 2: ref. #50002, BPS Bioscience™; HDAC 8: ref. #50008, BPS Bioscience™).
Reactions were stopped with 50 μl Developer (KI-105 Fluor de Lys™, BIOMOL®) with 2 μmol/L trichostatin A (TSA, final concentration 1 μmol/L). After 20 minutes at 37° C., fluorescence (excitation 360 nm, emission 460 nm) was measured using an Infinite F200 fluorimeter (Tecan). Background was determined in reactions using substrate in the absence of enzyme.
IC50 values are defined as the compound concentration at which the deacetylase activity is 50% inhibited. In these assays the following grading was used (I: IC50≦10 μM; II: 10 μM<IC50≦100 μM; III: 100 μM<IC50≦1 mM) The results obtained are summarized in Table 4.

[2] = system: human colon cancer cell line HCT116; experiment: alamarBlue viability assay, HCT116; type: cell-based; settings: HCT-116, 72 hours, dose required to inhibit cell growth by 50%
Protocol: The human colon cancer cell line HCT116 and the human breast cancer cell line MCF-7 were from the American Type Culture Collection (ATCC; CCL-247 and HTB-22, respectively).
The HCT116 cell line was maintained in DMEM GlutaMAX (Invitrogen) supplemented with 10% fetal calf serum and the MCF7 cell line was maintained in RPMI1640 GlutaMAX (Invitrogen) containing 1 mM sodium piruvate and 10% fetal calf serum.
Cells were grown in a humidified incubator at 37° C. in 5% CO2.
Cells were plated in 96-well plates at a density of 6000 cells/well in 100 μl medium 24 h before addition of drugs. […] To do so, a drugs-dilution plate at twice the screening concentrations was prepared. 72 hours later, alamarBlue (Biosource, Invitrogen) viability assay was performed following manufacturer's protocol. In brief, alamarBlue diluted in media was added to cells to have a 5% solution. Cells were incubated at 37° C., 3 hours and at room temperature, 30 min. Cells with no drug and, cells with no drug and lysed with triton X-100 were used as controls. Fluorescence was monitored at 530 nm excitation and 590 nm emission wavelengths. Results were quantified using Infinite F200 Microplate Reader (Tecan Group, Ltd.). EC50 were calculated as the dose of drugs required to inhibit cell growth by 50%, with Origin 7.0 computer program.

T1 sequence (Q92769 whole entry): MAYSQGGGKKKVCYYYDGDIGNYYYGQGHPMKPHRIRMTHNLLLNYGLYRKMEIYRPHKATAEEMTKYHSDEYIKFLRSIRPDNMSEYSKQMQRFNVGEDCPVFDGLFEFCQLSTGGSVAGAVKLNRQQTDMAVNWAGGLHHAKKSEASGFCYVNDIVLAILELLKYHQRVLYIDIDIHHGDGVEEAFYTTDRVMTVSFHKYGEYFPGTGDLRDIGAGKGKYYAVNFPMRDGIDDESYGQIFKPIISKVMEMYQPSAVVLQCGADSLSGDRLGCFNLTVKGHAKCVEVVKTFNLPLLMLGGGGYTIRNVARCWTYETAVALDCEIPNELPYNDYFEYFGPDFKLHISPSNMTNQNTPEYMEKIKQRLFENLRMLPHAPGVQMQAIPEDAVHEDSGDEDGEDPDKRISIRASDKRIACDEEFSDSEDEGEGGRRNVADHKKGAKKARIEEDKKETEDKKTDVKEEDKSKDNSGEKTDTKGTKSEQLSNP

| Compound | IC50 [1] [µM] | EC50 [2] [µM] |
| --- | --- | --- |
| O=C(O)C(CCCc1ccccc1)CCC1CNc2ccccc21 (mixture of isomers) [Example 53, 2-[2-(2,3-Dihydro-1H-indol-3-yl)ethyl]-5-phenylpentanoic acid] | 10 to 100 |  |
| O=C(O)C(CCCCc1ccccc1)CCc1ccccc1 (centres unmarked) [Example 14, 6-Phenyl-2-(2-phenylethyl)hexanoic acid] | 10 to 100 | 256 |
| CC(=O)OCOC(=O)C(CCc1ccccc1)Cc1ccccc1 (centres unmarked) [Example 15, (Acetyloxy)methyl 2-benzyl-4-phenylbutanoate] |  | 85 |
| CC(=O)OCOC(=O)C(CCCc1ccccc1)CCc1ccccc1 (centres unmarked) [Example 16, (Acetyloxy)methyl 5-phenyl-2-(2-phenylethyl)pentanoate] |  | 267 |
| COc1ccc(NS(=O)(=O)c2cccc(CCCC(CCc3ccccc3)C(=O)OCOC(C)=O)c2)cc1OC (centres unmarked) [Example 17, (Acetyloxy)methyl 5-(3-{[(3,4-dimethoxyphenyl)amino]sulfonyl}phenyl)-2-(2-phenylethyl)pentanoate] |  | 62 |
| CC(=O)OCOC(=O)C(CCCc1cccc(S(=O)(=O)Nc2ccc(C)cc2)c1)CCc1ccccc1 (centres unmarked) [Example 18] |  | 95 |
| Cc1ccc(S(=O)(=O)Nc2cccc(CCCC(CCc3ccccc3)C(=O)O)c2)cc1 (centres unmarked) [Example 25, 5-(3′-{[(4-Methylphenyl)sulfonyl]amino}phenyl)-2-(2-phenylethyl)pentanoic acid] | 10 to 100 | 121 |
| Nc1ccc(CCC(CCCc2ccccc2)C(=O)O)cc1 (centres unmarked) [Example 32, 2-[2-(4-Aminophenyl)ethyl]-5-phenylpentanoic acid] | 100 to 1000 |  |
| O=C(O)C(CCCc1ccccc1)CCc1ccc(NCc2ccccc2)cc1 (centres unmarked) [Example 33, 2-[2-(4-(Benzylamino)phenyl)ethyl]-5-phenylpentanoic acid] | 10 to 100 | 71.4 |
| CNS(=O)(=O)c1cccc(CCCC(CCc2ccccc2)C(=O)OC)c1 (centres unmarked) [Example 42, Methyl 5-(3-[(methylamino)sulfonyl]phenyl)-2-(2-phenylethyl)pentanoate] |  | 56 |
| Cc1ccc(NS(=O)(=O)c2cccc(CCCC(CCCc3ccccc3)C(=O)O)c2)cc1 (centres unmarked) [Example 44, 5-[3-(4-methylanilinosulfonyl)phenyl]-2-(3-phenylpropyl)pentanoic acid] | 10 to 100 | 95 |
| CCc1ccc(CCC(CCCc2ccc(S(=O)(=O)Nc3ccccc3)cc2)C(=O)OC)cc1 (centres unmarked) [Example 47, Methyl 5-[4-(anilinosulfonyl)phenyl]-2-[2-(4-ethylphenyl)ethyl]pentanoate] |  | 23 |
| CCc1ccc(CCC(CCCCc2ccccc2)C(=O)O)cc1 (centres unmarked) [Example 48, 2-[2-(4-Ethylphenyl)ethyl]-6-phenylhexanoic acid] | 10 to 100 | 112 |
| CCc1ccc(CCC(CCCc2cccc3ccccc23)C(=O)O)cc1 (centres unmarked) [Example 50, 5-(1-Naphthyl)-2-[2-(4-ethylphenyl)ethyl]-pentanoic acid] | 100 to 1000 | 103 |
| O=C(O)C(CCCc1ccccc1)CCc1ccc(Br)cc1 (centres unmarked) [Example 52, 2-[2-(4-Bromophenyl)ethyl]-5-phenylpentanoic acid] | 100 to 1000 | 107 |
| O=C(O)C(CCCc1ccccc1)CCc1ccc(O)cc1 (centres unmarked) [Example 54, 2-[2-(4-hydroxyphenyl)ethyl]-5-phenylpentanoic acid] | 100 to 1000 |  |
| CC(=O)OCOC(=O)C(CCCc1ccccc1)CCc1ccc(OCc2ccccc2)cc1 (centres unmarked) [Example 56, (Acetyloxy)methyl 2-[2-(4-benzyloxyphenyl)ethyl]-5-phenyl pentanoate] |  | 56 |
| O=C(O)C(CCCc1ccccc1)CCc1ccc(OCc2ccccn2)cc1 (centres unmarked) [Example 58, 2-{2-[4-(Pyridin-2-ylmethoxy)phenyl]ethyl}-5-phenylpentanoic acid] | 10 to 100 | 160 |

| Compound | IC50 [1] [µM] | EC50 [2] [µM] |
| --- | --- | --- |
| O=C(O)C(CCCc1ccccc1)CCc1ccc(OCc2cccnc2)cc1 (centres unmarked) [Example 59, 2-{2-[4-(Pyridin-3-ylmethoxy)phenyl]ethyl}-5-phenyl pentanoic acid] | 10 to 100 |  |
| O=C(O)C(CCCc1ccccc1)CCc1ccc(OCc2ccncc2)cc1 (centres unmarked) [Example 60, 2-{2-[4-(Pyridin-4-ylmethoxy)phenyl]ethyl}-5-phenylpentanoic acid] | 100 to 1000 |  |
| N#Cc1ccccc1Oc1ccc(CCC(CCCc2ccccc2)C(=O)O)cc1 (centres unmarked) [Example 61, 2-{2-[4-(2-Cyanophenoxy)phenyl]ethyl}-5-phenylpentanoic acid] | 10 to 100 | 70.7 |
| N#Cc1cccc(Oc2ccc(CCC(CCCc3ccccc3)C(=O)O)cc2)c1 (centres unmarked) [Example 62, 2-{2-[4-(3-cyanophenoxy)phenyl]ethyl}-5-phenylpentanoic acid] | 10 to 100 | 155 |
| N#Cc1ccc(Oc2ccc(CCC(CCCc3ccccc3)C(=O)O)cc2)cc1 (centres unmarked) [Example 63, 2-{2-[4-(4-cyanophenoxy)phenyl]ethyl}-5-phenylpentanoic acid] | 10 to 100 | 88 |
| O=C(O)C(CCCc1ccccc1)CCc1ccc(Oc2ccc(F)cc2)cc1 (centres unmarked) [Example 64, 2-{2-[4-(4-Fluorophenoxy)phenyl]ethyl}-5-phenylpentanoic acid] | 100 to 1000 |  |
| O=C(O)C(CCCc1ccccc1)CCc1ccc(Oc2ccccc2)cc1 (centres unmarked) [Example 65, 2-{2-[4-Phenoxyphenyl]ethyl}-5-phenylpentanoic acid] | 100 to 1000 |  |
| O=C(O)C(CCCc1ccccc1)CCc1ccc(Oc2ccc(C(F)(F)F)cc2)cc1 (centres unmarked) [Example 66, 2-{2-[4-(4-Trifluoromethylphenoxy)phenyl]ethyl}-5-phenyl pentanoic acid] | 100 to 1000 |  |
| COc1ccc(Oc2ccc(CCC(CCCc3ccccc3)C(=O)O)cc2)cc1 (centres unmarked) [Example 67, 2-{2-[4-(4-Methoxyphenoxy)phenyl]ethyl}-5-phenylpentanoic acid] | 10 to 100 |  |
| O=C(O)C(CCc1ccccc1)SCCc1ccccc1 (centres unmarked) [Example 68, 4-Phenyl-2-[(2-phenylethyl)thio]butanoic acid] | 100 to 1000 |  |
| O=C(O)C(CCCc1ccccc1)SCc1ccccc1 (centres unmarked) [Example 70, Sodium 2-(benzylthio)-5-phenylpentanoate] | 100 to 1000 | 825 |
| O=C(O)C(CCCc1ccccc1)CCc1ccc(-c2ccccc2)cc1 (centres unmarked) [Example 72, 2-[2-(1,1′-Biphenyl-4-yl)ethyl]-5-phenylpentanoic acid] | 10 to 100 | 88.3 |
| O=C(O)C(CCCc1ccccc1)CCc1ccc(-c2ccco2)cc1 (centres unmarked) [Example 73, 2-{2-[4′-(2-Furyl)phenyl]ethyl}-5-phenylpentanoic acid] | 100 to 1000 | 48.6 |
| O=C(O)C(CCCc1ccccc1)CCc1ccc(-c2ccoc2)cc1 (centres unmarked) [Example 74, 2-{2-[4′-(3-Furyl)phenyl]ethyl}-5-phenylpentanoic acid] | 10 to 100 | 94.5 |
| O=C(O)C(CCCc1ccccc1)CCc1ccc(-c2ccsc2)cc1 (centres unmarked) [Example 75, 2-{2-[4′-(3-Thienyl)phenyl]ethyl}-5-phenylpentanoic acid] | 100 to 1000 | 184 |
| O=C(O)C(CCCc1ccccc1)CCc1ccc(-c2ccncc2)cc1 (centres unmarked) [Example 76, 2-{2-[(4′-Pyridinyl)phenyl-4-yl]ethyl}-5-phenylpentanoic acid hydrochloride] | 10 to 100 | 166 |
| O=C(O)C(CCCc1ccccc1)CCc1ccc(-c2cccs2)cc1 (centres unmarked) [Example 78, 5-Phenyl-2-[2-(4′-thien-2-ylphenyl)ethyl]pentanoic acid] | 10 to 100 | 87.2 |
